Assay results from US20180216057A1, “SYSTEM AND METHOD FOR GENERATING BIOLOGICAL TISSUE” (Yale University, priority 2017, published 2018).

Legend:
hiPSC-CM EHTs = assay: Inotropic/lusitropic response of hiPSC-CM EHTs to β-adrenergic agonist; format: cell-based, human; conditions: 100 nM isoproterenol, 8% stretch, 30 minutes equilibration, vs baseline
Procedure: To determine twitch force development and kinetics, EHTs were measured as early as 5 days after seeding. Clips holding the EHT were ejected from the frame and picked up by motorized micromanipulators with claw-like extensions, leaving the muscle suspended between an anchoring attachment claw on one end and a force transducer mounted to a second claw on the other (FIG. 5D). The EHT was immersed in a temperature-controlled perfusion bath equipped with electrodes for field stimulus. Throughout measurements, scaffolds were perfused with freshly oxygenated Tyrode's solution (in mM: NaCl 140, KCl5.4, MgCl2 1, HEPES 25, glucose 10, and CaCl 1.8; pH adjusted to 7.35). Used Tyrode's solution was collected in a sealed chamber during testing and checked to ensure adequate consistency of pH. The maximum fluctuation never exceeded 0.05 pH units. All measurements were performed at 35° C. During biomechanical testing, NRVM-EHTs were electrically paced (12 V, 10 ms pulse width at 0.5 Hz) and the resulting twitch force was recorded (FIG. 5E). Human EHTs were paced at 1 Hz. Intracellular calcium concentrations were measured in some constructs using the ratiometric fluorescent indicator Fura-2 AM. Inotropic response. […] Tissues were equilibrated in Tyorde's solution for 30 minutes and measured at 8% stretch. […]

[1] = system: EHTs from neonatal rat ventricular myocytes (NRVMs) seeded into laser-cut decellularized porcine myocardium; assay: Twitch stress and kinetics of NRVM engineered heart tissues cultured with thyroid hormone T3; format: cell-based
Procedure: To determine twitch force development and kinetics, EHTs were measured as early as 5 days after seeding. Clips holding the EHT were ejected from the frame and picked up by motorized micromanipulators with claw-like extensions, leaving the muscle suspended between an anchoring attachment claw on one end and a force transducer mounted to a second claw on the other (FIG. 5D). The EHT was immersed in a temperature-controlled perfusion bath equipped with electrodes for field stimulus. Throughout measurements, scaffolds were perfused with freshly oxygenated Tyrode's solution (in mM: NaCl 140, KCl5.4, MgCl2 1, HEPES 25, glucose 10, and CaCl 1.8; pH adjusted to 7.35). Used Tyrode's solution was collected in a sealed chamber during testing and checked to ensure adequate consistency of pH. The maximum fluctuation never exceeded 0.05 pH units. All measurements were performed at 35° C. During biomechanical testing, NRVM-EHTs were electrically paced (12 V, 10 ms pulse width at 0.5 Hz) and the resulting twitch force was recorded (FIG. 5E). Human EHTs were paced at 1 Hz. Intracellular calcium concentrations were measured in some constructs using the ratiometric fluorescent indicator Fura-2 AM.
During mechanical testing, EHTs were stretched until reaching their culture length (6 mm) and again after applying 0.1 mm incremental increases until reaching a length of 6.6 mm (representing 10% total stretch). Ten contraction events were recorded and averaged at each level of stretch. The peak stress (mN/mm^2) was computed offline by dividing measured force by the cross-sectional area of the EHT. Characteristics of contraction kinetics were also computed offline, including the time to peak stress (TTP) and time from peak stress to 50% relaxation (RT50). The length-stress gain during isometric stretch (slope of the stretch-peak stress relationship, FIG. 13C) was calculated for each scaffold using engineering strain as the unit for stretch. The force-frequency relationship was determined while keeping EHTs at 10% stretch and taking records at 0.5, 1, 2, 4, 6, and 8 Hz. During force-frequency measurements, pacing capture of EHTs was ensured by checking real time oscilloscope readings of the force transducer voltage output.
Thyroid hormone speeds contractile kinetics. To assess the sensitivity of this system towards changes in contractility and twitch kinetics, EHTs were subjected to a pharmacological perturbation known to alter the intrinsic properties of cardiac muscle. In rodents, an increase in thyroid hormone (T3) promotes expression of the faster α isoform of myosin heavy chain23. […] EHTs were characterized functionally and then returned to culture conditions at days 5, 8, 12, and 15.

[2] = 15 days old NRVM EHTs after T3 treatment, 2 Hz pacing

SMILES	lusitropic response (twitch kinetics TTP and RT50) (hiPSC-CM EHTs)	RT50 [1, 2]	TTP [1, 2]	time to peak stress (TTP) ([1]; NRVM EHTs, T3 10 ng/ml in culture, after 15 days in culture, untreated 113±6 ms)	time from peak stress to 50% relaxation (RT50) ([1]; NRVM EHTs, T3 10 ng/ml in culture, after 15 days in culture, untreated 130±3 ms)	effect on evolution of peak stress development across time points ([1]; T3 10 ng/ml, days 5, 8, 12, 15, 2-way repeated measures ANOVA)	effect on rates of contraction and relaxation vs non-treated control ([1]; T3 10 ng/ml, every time point analyzed (days 5, 8, 12, 15), p<0.001)
CC(C)NCC(O)c1ccc(O)c(O)c1 (stereo not shown) [Isoproterenol]	shorter TTP and RT50	–	–	–	–	–	–
N[C@@H](Cc1cc(I)c(Oc2ccc(O)c(I)c2)c(I)c1)C(=O)O [T3]	–	around 59 ms	83 ms	77 ± 2 ms	63 ± 3 ms	no significant effect	significantly accelerated rates of contraction and relaxation
